The term EC50 denotes the midpoint of the concentration-response curve.

The test concerns SARS-CoV-2 replicon. The test is classed as cell-based. The note with it: read-out: SARS-CoV-2 Replicon (Huh-7cell) EC50. Background: In antiviral work, replicon cells carry a viral genome segment that copies itself.

On to `CCCCCCCCCCCCOC(=O)[C@H](C)N[P@](=O)(OC[C@H]1O[C@@](C#N)(c2ccc3c(N)ncnn23)[C@H](OC(=O)C(C)C)[C@@H]1OC(=O)C(C)C)Oc1ccccc1` [Compound 46b, (2R,3R,4R,5R)-2-(4-aminopyrrolo[2,1-f][1,2,4]triazin-7-yl)-2-cyano-5-((((S)-(((S)-1-(dodecyloxy)-1-oxopropan-2-yl)amino)(phenoxy)phosphoryl)oxy)methyl)tetrahydrofuran-3,4-diyl bis(2-methylpropionate)], for which the EC50 lay within 50 to 500 nM.

Take `CCC(CC)COC(=O)[C@H](C)N[P@@](=O)(OCOC(=O)C(C)(C)C)OC[C@H]1O[C@@](C#N)(c2ccc3c(N)ncnn23)[C@H](OC(C)=O)[C@@H]1OC(C)=O` [Compound 9b, (2R,3R,4R,5R)-2-(4-aminopyrrolo[2,1-f][1,2,4]triazin-7-yl)-2-cyano-5-((((S)-(((S)-1-(2-ethylbutoxy)-1-oxopropan-2-yl)amino)((pivaloyloxy)methoxy)phosphoryl)oxy)methyl)tetrahydrofuran-3,4-diyl diacetate]: the EC50 is at most 5 nM.

With `CC(C)OC(=O)OCO[P@@](=O)(N[C@@H](C)C(=O)OC1CCC1)OC[C@H]1O[C@@](C#N)(c2ccc3c(N)ncnn23)[C@H](OC(=O)C(C)C)[C@@H]1OC(=O)C(C)C` [Compound 13a, (2R,3R,4R,5R)-2-(4-aminopyrrolo[2,1-f][1,2,4]triazin-7-yl)-2-cyano-5-((((R)-(((S)-1-cyclobutoxy-1-oxopropan-2-yl)amino)(((isopropoxycarbonyl)oxy)methoxy)phosphoryl)oxy)methyl)tetrahydrofuran-3,4-diyl bis(2-methylpropionate)], the EC50 is below 5 nM.

Take `CC(C)C(=O)O[C@H]1[C@@H](OC(=O)C(C)C)[C@](C#N)(c2ccc3c(N)ncnn23)O[C@@H]1COP(=O)(OCCSC(=O)C(C)(C)C)Oc1ccc(C(C)(C)C)cc1` (mixture of isomers) [Compound 27, (2R,3R,4R,5R)-2-(4-aminopyrrolo[2,1-f][1,2,4]triazin-7-yl)-5-((((4-tert-butylphenoxy)(2-(pivaloylthio)ethoxy)phosphoryl)oxy)methyl)-2-cyanotetrahydrofuran-3,4-diyl bis(2-methylpropionate)]: the EC50 was in the range of 10 to 50 nM.

For the compound `CC(C)OC(=O)OCO[P@@](=O)(OC[C@H]1O[C@@](C#N)(c2ccc3c(N)ncnn23)[C@H](OC(=O)C(C)C)[C@@H]1OC(=O)C(C)C)Oc1ccc(C(C)(C)C)cc1` [Compound 24a, (2R,3R,4R,5R)-2-(4-aminopyrrolo[2,1-f][1,2,4]triazin-7-yl)-5-((((S)-(4-tert-butylphenoxy)(((isopropoxycarbonyl)oxy)methoxy)phosphoryl)oxy)methyl)-2-cyanotetrahydrofuran-3,4-diyl bis(2-methylpropionate)], the EC50 is below 5 nM.

Regarding `CC(=O)OCO[P@@](=O)(OC[C@H]1O[C@@](C#N)(c2ccc3c(N)ncnn23)[C@H](OC(=O)C(C)C)[C@@H]1OC(=O)C(C)C)Oc1ccc(C(C)(C)C)cc1` [Compound 43a, (2R,3R,4R,5R)-2-(4-aminopyrrolo[2,1-f][1,2,4]triazin-7-yl)-5-(((((S)-acetoxylmethoxy)(4-tert-butylphenoxy)phosphoryl)oxy)methyl)-2-cyanotetrahydrofuran-3,4-diyl bis(2-methylpropionate)], the EC50 lay within 5 to 10 nM.

Take `CCCCC/C=C\C/C=C\CCCCCCCCOC(=O)[C@H](C)N[P@](=O)(OCOC(=O)OC(C)C)OC[C@H]1O[C@@](C#N)(c2ccc3c(N)ncnn23)[C@H](OC(=O)C(C)C)[C@@H]1OC(=O)C(C)C` [Compound 52a, (2R,3R,4R,5R)-2-(4-aminopyrrolo[2,1-f][1,2,4]triazin-7-yl)-2-cyano-5-((((R)-(((isopropoxycarbonyl)oxy)methoxy)(((S)-1-(((9Z,12Z)-octadeca-9,12-dien-1-yl)oxy)-1-oxopropan-2-yl)amino)phosphoryl)oxy)methyl)tetrahydrofuran-3,4-diyl bis(2-methylpropionate)]: the half-maximal effective concentration (EC50) was 50 to 500 nM.

As to `CCCCCOC(=O)C[C@H](N[P@@](=O)(OC[C@H]1O[C@@](C#N)(c2ccc3c(N)ncnn23)[C@H](OC(=O)C(C)C)[C@@H]1OC(=O)C(C)C)Oc1ccc(C(C)(C)C)cc1)C(=O)OCCCCC` [Compound 39a, (2R,3R,4R,5R)-2-(4-aminopyrrolo[2,1-f][1,2,4]triazin-7-yl)-2-cyano-5-((((R)-(((S)-1,4-dipentyloxy-1,4-dioxobutan-2-yl)amino)(4-tert-butylphenoxy)phosphoryl)oxy)methyl)tetrahydrofuran-3,4-diyl bis(2-methylpropionate)], the EC50 is 50 to 500 nM.

With `CCC(CC)COC(=O)[C@H](Cc1ccccc1)N[P@@](=O)(OCOC(=O)OC(C)C)OC[C@H]1O[C@@](C#N)(c2ccc3c(N)ncnn23)[C@H](OC(=O)C(C)C)[C@@H]1OC(=O)C(C)C` [Compound 31b, (2R,3R,4R,5R)-2-(4-aminopyrrolo[2,1-f][1,2,4]triazin-7-yl)-2-cyano-5-((((S)-(((S)-1-(2-ethylbutoxy)-1-oxo-3-phenylpropan-2-yl)amino)(((isopropoxycarbonyl)oxy)methoxy)phosphoryl)oxy)methyl)tetrahydrofuran-3,4-diyl bis(2-methylpropionate)], the EC50 lay within 10 to 50 nM.

As for `CC(=O)O[C@H]1[C@@H](OC(C)=O)[C@](C#N)(c2ccc3c(N)ncnn23)O[C@@H]1COP(=O)(OCOC(=O)OC(C)C)OCOC(=O)OC(C)C` [Compound 17, (2R,3R,4R,5R)-2-(4-aminopyrrolo[2,1-f][1,2,4]triazin-7-yl)-5-((((bis(((isopropoxycarbonyl)oxy)methoxy)phosphoryl))oxy)methyl)-2-cyanotetrahydrofuran-3,4-diyl diacetate], the concentration for a half-maximal effect (EC50) was below 5 nM.

Consider `CC(C)C(=O)O[C@H]1[C@@H](OC(=O)C(C)C)[C@](C#N)(c2ccc3c(N)ncnn23)O[C@@H]1CO[P@@](=O)(N[C@@H](Cc1ccccc1)C(=O)OC1CCC1)Oc1ccccc1` [Compound 63b, (2R,3R,4R,5R)-2-(4-aminopyrrolo[2,1-f][1,2,4]triazin-7-yl)-2-cyano-5-((((S)-(((S)-1-cyclobutoxy-1-oxo-3-phenylpropan-2-yl)amino)(phenoxy)phosphoryl)oxy)methyl)tetrahydrofuran-3,4-diyl bis(2-methylpropionate)], for which the EC50 is below 5 nM.

On to `CC(C)C(=O)OCOP(=O)(OCOC(=O)C(C)C)OC[C@H]1O[C@@](C#N)(c2ccc3c(N)ncnn23)[C@H](OC(=O)C(C)C)[C@@H]1OC(=O)C(C)C` [Compound 45], for which the EC50 was at most 5 nM.

On to `CC(C)C(=O)OCO[P@@](=O)(OC[C@H]1O[C@@](C#N)(c2ccc3c(N)ncnn23)[C@H](OC(=O)C(C)C)[C@@H]1OC(=O)C(C)C)Oc1ccc(C(C)(C)C)cc1` [Compound 26a, (2R,3R,4R,5R)-2-(4-aminopyrrolo[2,1-f][1,2,4]triazin-7-yl)-5-((((S)-(4-tert-butylphenoxy)((isobutyryloxy)methoxy)phosphoryl)oxy)methyl)-2-cyanotetrahydrofuran-3,4-diyl bis(2-methylpropionate)], for which the 50% effective concentration (EC50) was in the range of 5 to 10 nM.

(Values after patent publication EP4617278A1, “NUCLEOTIDE ANALOG, AND COMPOSITION AND USE THEREOF” (priority 2022, dated 2024).)
